System: pigs (barrows)
Assay: Belly (fat) compression test in pigs fed conjugated fatty acids
Type: in vivo, pig
Description: Experiments were conducted to evaluate the effects of feeding eleostearic (18:3) conjugated fatty acids on pig growth, carcass characteristics, and fat firmness. Twenty-four pigs (barrows, castrated males, from PIC genetics) with a capacity for high rates of daily lean growth and reduced back fat were randomly assigned by litter mates, weight, and block to three dietary treatments. Group one was fed normal corn feed, group two received normal corn feed supplemented with CLA, and the third group received normal corn feed supplemented with conjugated linolenic acids, i.e., ClnAs (18:3 conjugated fatty acids). Pigs were penned individually and identified by ear tattoo. […]
Live weights were recorded to determine average daily gains Phase 1 (150 to 200 lbs), and Phase 2 (200 to 250 lbs). […]
When pigs reached 250 pounds body weight they were slaughtered, processed and standard carcass measurements were collected. […] Bellies from the eight pigs in each study group were evaluated for fat firmness evaluated by measuring belly thickness before and after compression. […] Fat compression was quantified by subtracting the compressed belly thickness from the initial belly thickness. Belly thickness was measured using a micrometer. Data were analyzed as a randomized complete block design using the GLM (General Linear Model) procedure of SAS (Statistical Analysis Systems). […]

For Conjugated linoleic acid [NC + CLA], the “fat firmness in pigs (in words)” value (addition to NC diets, versus NC diet) was “greater fat firmness” and the “Pork Belly Compression” value (initial minus compressed belly thickness, 50 lb weight for one hour, 0.50% conjugated fatty acid in diet, smaller number = greater firmness, 8 pigs per group) was 28.0 mm.

— patent US7786356B2, “Method for the production of calendic acid, a fatty acid containing delta 8,10,12 conjugated double bonds and related fatty acids having a modification at the delta 9 position” (E.I. du Pont de Nemours and Company, priority 1999, dated 2010)
